Results as given in article PMC4654778 (Clinical cancer research : an official journal of the …, 2012).

Tests used:
[1] = target: FGFR-4 (Homo sapiens, UniProt P22455, G388R); type: cell-based
[2] = target: FGFR-1 (Homo sapiens, UniProt P11362); type: cell-based
Chain of FGFR-1 (P11362 22-822): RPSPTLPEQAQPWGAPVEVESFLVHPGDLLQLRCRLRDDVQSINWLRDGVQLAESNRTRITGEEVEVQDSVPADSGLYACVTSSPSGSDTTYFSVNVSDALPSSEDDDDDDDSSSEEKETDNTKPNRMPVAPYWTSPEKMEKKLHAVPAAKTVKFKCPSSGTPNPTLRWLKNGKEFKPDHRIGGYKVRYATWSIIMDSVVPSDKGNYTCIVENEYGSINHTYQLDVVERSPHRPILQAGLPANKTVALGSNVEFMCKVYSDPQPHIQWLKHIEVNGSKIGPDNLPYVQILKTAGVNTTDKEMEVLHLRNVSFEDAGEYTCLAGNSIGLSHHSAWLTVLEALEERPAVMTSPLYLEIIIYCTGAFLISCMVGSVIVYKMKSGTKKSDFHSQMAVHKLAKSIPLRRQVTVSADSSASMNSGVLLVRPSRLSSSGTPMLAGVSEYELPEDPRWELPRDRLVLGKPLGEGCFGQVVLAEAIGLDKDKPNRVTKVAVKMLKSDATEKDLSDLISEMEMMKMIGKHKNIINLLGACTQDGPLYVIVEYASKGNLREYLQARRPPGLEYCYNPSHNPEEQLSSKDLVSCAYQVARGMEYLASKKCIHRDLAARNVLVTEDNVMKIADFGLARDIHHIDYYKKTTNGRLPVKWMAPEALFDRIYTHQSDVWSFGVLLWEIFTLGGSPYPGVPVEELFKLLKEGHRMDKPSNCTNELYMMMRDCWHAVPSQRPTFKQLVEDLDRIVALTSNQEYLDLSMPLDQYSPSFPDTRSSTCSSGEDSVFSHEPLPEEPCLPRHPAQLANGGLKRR

Chain of FGFR-4 (P22455 22-802 G388R): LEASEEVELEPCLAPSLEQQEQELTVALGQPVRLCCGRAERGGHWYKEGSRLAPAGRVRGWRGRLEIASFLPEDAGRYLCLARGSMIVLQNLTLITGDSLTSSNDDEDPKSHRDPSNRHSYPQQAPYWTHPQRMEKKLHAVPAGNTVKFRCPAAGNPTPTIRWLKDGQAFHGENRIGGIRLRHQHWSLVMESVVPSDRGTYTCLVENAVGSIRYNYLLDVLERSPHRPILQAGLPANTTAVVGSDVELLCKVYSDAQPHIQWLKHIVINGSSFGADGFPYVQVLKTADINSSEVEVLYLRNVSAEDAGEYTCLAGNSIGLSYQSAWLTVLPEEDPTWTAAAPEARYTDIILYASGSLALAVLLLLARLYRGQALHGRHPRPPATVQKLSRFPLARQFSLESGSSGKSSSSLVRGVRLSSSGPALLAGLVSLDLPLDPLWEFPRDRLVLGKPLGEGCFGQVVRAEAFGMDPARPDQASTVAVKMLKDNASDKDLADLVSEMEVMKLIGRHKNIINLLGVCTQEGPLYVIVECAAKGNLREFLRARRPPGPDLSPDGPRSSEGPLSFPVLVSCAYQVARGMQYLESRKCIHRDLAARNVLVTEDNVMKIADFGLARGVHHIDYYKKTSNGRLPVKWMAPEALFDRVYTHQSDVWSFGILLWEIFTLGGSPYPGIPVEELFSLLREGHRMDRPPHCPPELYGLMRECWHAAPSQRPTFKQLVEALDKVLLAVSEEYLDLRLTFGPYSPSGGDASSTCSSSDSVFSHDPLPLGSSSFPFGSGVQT

Q: What does the source list for AZ8010?
A: % inhibition at 100 nM [1]: 75; % inhibition at 100 nM [2]: 86
